Results published in PubChem BioAssay (NCI).
Values joined by “and” are separate entries in the source; they are usually repeats but may differ in a detail not shown here. Equal values may be shown once.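 The compound was tested at five concentrations on cells cultured in 96-well plates, with a 48-hour exposure period. Abbreviation: GI50, concentration required for 50% inhibition of growth. TGI is the concentration that stops growth completely.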

Assays:
Assay in all cases: inhibition of tumour cell growth, NCI panel, 48 h
[1] = test system: OVCAR-5 ovarian
[2] = test system: A549 NSCLC
[3] = test system: EKVX NSCLC
[4] = test system: HCT-116 colon
[5] = test system: ACHN renal
[6] = test system: NCI-H226 lung
[7] = test system: SK-MEL-5 melanoma
[8] = test system: PC-3 prostate
[9] = test system: MDA-MB-231 breast
[10] = test system: T-47D breast

SMILES	TGI [1] [µM]	TGI [2] [µM]	TGI [3] [µM]	TGI [4] [µM]	TGI [5] [µM]	TGI [6] [µM]	GI50 [1] [nM]	GI50 [2] [nM]	GI50 [3] [nM]	GI50 [7] [nM]	TGI [7] [µM]	GI50 [8] [nM]	TGI [8] [µM]	GI50 [4] [nM]	GI50 [5]	GI50 [6] [nM]	GI50 [9] [nM]	TGI [9] [µM]	GI50 [10] [µM]	TGI [10] [µM]
OCC1OC(c2nc(C3=NCCCN3)cs2)C(O)C1O (configuration not stated)	> 100	> 100	> 100	> 100	> 100	> 100	–	–	–	–	–	–	–	–	–	–	–	–	–	–
Cn1cc(-c2csc(-c3c[nH]c4ccc(F)cc34)n2)c2cnccc21	3.36	3.42	3.3	2.56	3.12	4.03	1910	1830	1620	1650	3.05	1690	3.61	1220	1740 nM	1880	1460	2.93	–	–
O=C(CCc1n[nH]c(=S)o1)Nc1ccccc1C(F)(F)F	> 100	–	> 100	–	> 100	> 100	–	–	–	–	> 100	–	–	–	–	–	–	–	–	–
Cn1cc(C2=C(c3cn(CCCCO)c4ccccc34)C(=O)NC2=O)c2ccccc21	> 25	> 25	–	> 25	> 23.4	> 25	13500	7970	–	6260	> 20.5	9380	> 25	7630	6380 nM	7550	17200	> 25	9.64	24.8
COc1ccc(C(=O)/C=C/c2cc(-c3cc(OC)c(OC)c(OC)c3)n[nH]2)cc1OC	3.03	4.59	–	–	3.09	–	1590	1860	–	1650	3.03	1360	2.8	–	1660 nM	–	1480	3.06	1.63	4.36
CCN1CCC(O)(c2ccc(OC)cc2)C(C(=O)c2ccc(OC)cc2)C1 (configuration not stated)	32.3	37	98	52.4	30.1	> 100	–	–	–	–	29	–	–	–	–	–	–	–	–	–
COC1(OC)C(N(C)C)=C(Cl)C(=O)/C1=C/C=O	> 100	> 100	–	> 100	> 100	> 100	–	–	–	–	> 100	–	–	–	–	–	–	–	–	–
COc1cc2c(c(OC)c1OC)-c1ccc(SC)c(=O)cc1C(NC=O)CC2 (configuration not stated)	> 94.3	> 83.4	> 85.2	–	> 100	0.754	–	–	–	–	< 0.01	–	> 100	–	–	–	–	> 4.64	–	> 100
N#C/C1=C(\N)CCSSSC1	> 100	> 100	> 100	> 100	> 100	65.8	–	–	–	–	60.9	–	–	–	–	–	–	–	–	–
COc1cc(-c2cc(-c3cc4c([nH]c5ccccc54)c(-c4cc(OC)c(OC)c(OC)c4)n3)cc(-c3ccccc3)n2)cc(OC)c1OC	> 100	80.9	–	> 100	> 100	> 100	25700	3400	–	2460	7.61	3590	32.3	4020	4570 nM	7560	3590	> 100	2.8	35.4
O=C1/C(=C/c2ccc3c(c2)OCO3)SC2C=Nc3ccccc3N12 (configuration not stated)	> 100	> 100	> 100	> 100	> 100	> 100	–	–	–	–	> 100	–	–	–	–	–	–	–	–	–
Cc1ccc(NC(=O)CCc2cc(C(C)(C)C)nc(=S)[nH]2)cc1C	> 100	> 100	> 100	> 100	> 100	> 100	–	–	–	–	> 100	–	–	–	–	–	–	–	–	–
Cc1ccc(/C=C/C(=O)c2sc(-c3nc(C)c(C(=O)/C=C/c4ccc(C)cc4)s3)nc2C)cc1	> 100	> 100	> 100	–	> 100	> 100	–	–	–	–	> 100	–	–	–	–	–	–	–	–	–
O=C1/C(=C/c2cccc(Cl)c2Cl)N=C(c2ccccc2)N1C1CC1	21.1	> 50	22.2	18.9	> 50	23.2	10400	19700	9900	11400	24.7	8850	17.2	8980	16700 nM	9540	8050	18.3	–	–
Cc1cc(Cl)ccc1NC(=O)C(=O)Cc1nc2ccccc2o1	> 100	> 100	> 100	> 100	> 100	–	–	–	–	–	> 100	–	–	–	–	–	–	–	–	–
O=C(/C=C/c1cccc2ccccc12)c1ccccc1Cl	–	55.7	28.6	20.9	31.3	> 100	–	–	–	–	30.8	–	–	–	–	–	–	–	–	–
[N-]=[N+]=N[C@H]1C[C@@H](CO)O[C@H]1n1cnc2c(N)ncnc21	> 100	> 100	> 100	> 100	> 100	> 100	–	–	–	–	> 100	–	–	–	–	–	–	–	–	–
NC(=O)C12CC3CC(CC(F)(C3)C1)C2	> 100	> 100	> 100	> 100	> 100	–	–	–	–	–	–	–	–	–	–	–	–	–	–	–
Nc1c(C(=O)Nc2ccncc2)sc2nc3c(cc12)CCCCCCCC3	1.64	2	1.63	–	1.6	2.03	897	1010	851	831	1.52	866	1.72	–	889 nM	919	899	1.66	0.94	2.21
COc1cc(F)ccc1-c1ncnc(Nc2cccc(CS(C)(=N)=O)c2)n1 (configuration not stated)	> 100	> 100	37.2	> 100	> 100	> 100	827	2830	1400	–	–	1280	7.7	421	476 nM	497	1740	> 100	–	–
C1=CC(N(c2ccccc2)C2C=CCCC2)CCC1 (configuration not stated)	–	> 100	> 100	> 100	> 100	–	–	–	–	–	> 100	–	–	–	–	–	–	–	–	–
O=c1ccn([C@H]2CSC[C@@H](CO)C2)c(=O)[nH]1	> 100	> 100	> 100	> 100	> 100	> 100	–	–	–	–	> 100	–	–	–	–	–	–	–	–	–

SMILES	TGI [1] [µM]	TGI [2] [µM]	TGI [3] [µM]	TGI [4] [µM]	TGI [5] [µM]	TGI [6] [µM]	GI50 [1] [nM]	GI50 [2] [nM]	GI50 [3] [nM]	GI50 [7] [nM]	TGI [7] [µM]	GI50 [8] [nM]	TGI [8] [µM]	GI50 [4] [nM]	GI50 [5]	GI50 [6] [nM]	GI50 [9] [nM]	TGI [9] [µM]	GI50 [10] [µM]	TGI [10] [µM]
CCC(C)COC(=O)c1ccc(N=Cc2ccc(C=Nc3ccc(C(=O)OCC(C)CC)cc3)cc2)cc1 (configuration not stated)	> 100	> 100	> 100	> 100	> 100	> 100	–	–	–	–	> 100	–	–	–	–	–	–	–	–	–
CCCc1nc(NC#N)nc(C(=O)Nc2ccccc2)c1CC	> 100	> 100	> 100	> 100	> 100	> 100	–	–	–	–	> 100	–	–	–	–	–	–	–	–	–
COc1cc(NCc2ccc3nc(N)nc(N)c3c2C)cc(OC)c1OC (tested in a mixture with another compound)	35.9	21.9	26.6	33	32.8	52.8	28.7	0.138	–	–	–	–	37.4	0.185	73.6 nM and 25 nM	89.2	89.3	55.2	–	65.7
COc1ccc(NC(=O)/C(Cc2cc(=O)oc3cc(O)ccc23)=N\NC(C)(C)C)c(OC)c1	> 100	> 100	> 100	> 100	> 100	> 100	–	–	–	–	> 100	–	–	–	–	–	–	–	–	–
C=C(C)[C@@H]1CC[C@]2(C)[C@H](CC=C3[C@@H]4CC(C)(C)CC[C@]4(C(N)=O)CC[C@]32C)[C@@]1(C)CCC#N	> 100	> 100	> 100	–	51.2	9.41	4350	4100	3600	1830	3.31	2370	> 100	–	3010 nM	2940	3960	> 100	3.27	> 100
COc1cc2c(cc1OCCCNC(=O)c1cccc3c(=O)c4ccccc4[nH]c13)N=C[C@@H]1CCCN1C2=O	30.6	> 100	0.14	> 100	> 100	< 0.01	< 10	20.2	16.6	–	–	< 11	0.949	< 10	19.7 nM	< 10	< 10	< 0.0484	< 0.01	29.6
CN1CCOC(c2ccccc2)O1 (configuration not stated)	> 100	> 100	> 100	> 100	> 100	> 100	–	–	–	–	> 100	–	–	–	–	–	–	–	–	–
O=C(Nc1nc(=S)c2c(ncn2CCOC(=O)c2ccccc2)[nH]1)c1ccccc1	> 100	> 100	> 100	> 100	> 100	> 100	–	–	–	–	> 100	–	–	–	–	–	–	–	–	–
CC(=O)c1sc(Nc2nnc(-c3ccc(-c4nnc(Nc5nc(C)c(C(C)=O)s5)o4)cc3)o2)nc1C	> 10	> 10	> 100	> 100	> 100	> 100	–	–	–	–	–	–	–	–	–	–	–	–	–	–
Cc1nn(-c2ccc(Cl)cc2)c2nc3c(nc12)C(=O)c1ccccc1-3	> 100	> 100	> 100	–	> 100	> 100	> 100000	> 100000	> 100000	> 100000	> 100	–	–	–	> 100000 nM	25600	82700	> 100	17.4	65.6
CN(C)CC1CCCC/C1=N/OC(=O)c1ccc(Cl)cc1 (configuration not stated)	> 100	> 100	> 100	> 100	> 100	> 100	–	–	–	–	–	–	–	–	–	–	–	–	–	–
COc1ccc2[nH]cc(C3(c4c[nH]c5ccc(OC)cc45)C(=O)Nc4ccc(F)cc43)c2c1	8.93	–	8.07	3.16	10.1	12	2610	–	2350	1980	4.77	3130	16.5	1760	2930 nM	2580	1570	3.56	3.04	14.9
CCC[CH2][Sn]([Cl])([CH2]CCC)[CH2]CCC	0.248	0.32	0.364	0.188	0.276	–	117	132	56.4	192	0.808	–	–	56.9	144 nM	–	–	–	–	–
Cc1cc(N(CCC#N)CCC#N)ccc1N=Nc1ccc(C(=O)O)cc1	> 100	> 100	> 100	–	> 100	> 100	–	–	–	–	> 100	–	–	–	–	–	–	–	–	–
CC1c2c(Cl)nc3ccccc3c2Oc2c1c(Cl)nc1ccccc21	> 100	> 100	> 100	> 100	> 100	–	–	–	–	–	> 100	–	–	–	–	–	–	–	–	–
COC(=O)C(Cc1nc2ccc(Cl)cc2[nH]c1=O)/C(=N\N)C(=O)Nc1cc(C)c(Cl)cc1S(=O)(=O)O (configuration not stated)	> 100	> 100	> 100	> 100	> 100	> 100	–	–	–	–	> 100	–	–	–	–	–	–	–	–	–
CCOC(=O)C(=[N+]=[N-])[Si](C)(C)C	> 100	> 100	–	> 100	> 100	–	–	–	–	–	> 100	–	–	–	–	–	–	–	–	–
C1CN2CCN3CCN4CCN1[P+]243	> 100	> 100	> 100	> 100	> 100	> 100	–	–	–	–	> 100	–	–	–	–	–	–	–	–	–
CCOc1ccccc1NC(=O)C(=O)CC(=O)c1sc(Nc2nnc(-c3ccc(Cl)c(Cl)c3)o2)nc1C	> 100	> 100	> 100	> 100	> 100	> 100	–	–	–	–	> 100	–	–	–	–	–	–	–	–	–
CCOc1ccc(NC(=O)C(=O)CC(=O)c2c(C)n([O-])c3ccccc3[n+]2=O)cc1	> 100	> 100	> 100	> 100	> 100	> 100	–	–	–	–	> 100	–	–	–	–	–	–	–	–	–
COc1ccc(CC2NCCc3c2[nH]c2ccccc32)cc1 (configuration not stated)	> 100	> 100	> 100	> 100	> 100	> 100	–	–	–	–	> 100	–	–	–	–	–	–	–	–	–
